Active and inactive are the calls of the source. The rule behind the calls is not given here. *1 amine or outer side, *2 acyl side, *3 side chain or, on linkers, in order; H or OH if unused. Where a SMILES comes first, the peptide text is derived from it. Bridges are numbered along the chain shown (N, C = ends). Triazole bridges read from a SMILES are 1,4-linked. [ ]: non-standard residue; d: D form. Dap(N3) = [N-]=[N+]=NC[C@H](N)C(=O)O; oXylylene = c1ccc(C[*:2])c(C[*:1])c1; pXylylene = c1cc(C[*:2])ccc1C[*:1]; Pra = C#CC[C@H](N)C(=O)O; CH2CH2 = C(C[*:2])[*:1]; X2 = O=C(CC[*:2])[*:1]; X1 = C(C[*:1])C[*:2]
System: Calvarial osteoblast
Test: Induction of osteoblast differentiation in rat fetal calvarial osteoblast assessed as [3H]thymidine incorporation at 10^-8 to 10^-10 after 6 hrs
Type: functional, cell-based

Compound | Activity
C[C@H](NC(=O)[C@@H]1CSSC[C@H](NC(=O)[C@@H](N)CCCCN)C(=O)N[C@@H](CC(N)=O)C(=O)N[C@@H]([C@@H](C)O)C(=O)N[C@@H](C)C(=O)N[C@@H]([C@@H](C)O)C(=O)N1)C(N)=O (H-KCNTATCA-NH2; disulfide 2-7) | Active
C[C@H](NC(=O)[C@@H]1CSCCSC[C@H](NC(=O)[C@@H](N)CCCCN)C(=O)N[C@@H](CC(N)=O)C(=O)N[C@@H]([C@@H](C)O)C(=O)N[C@@H](C)C(=O)N[C@@H]([C@@H](C)O)C(=O)N1)C(N)=O (H-KCNTATCA-NH2; linker 2-7 via CH2CH2) | inactive
C[C@H](NC(=O)[C@@H]1CSCCCSC[C@H](NC(=O)[C@@H](N)CCCCN)C(=O)N[C@@H](CC(N)=O)C(=O)N[C@@H]([C@@H](C)O)C(=O)N[C@@H](C)C(=O)N[C@@H]([C@@H](C)O)C(=O)N1)C(N)=O (H-KCNTATCA-NH2; linker 2-7 via X1) | inactive
C[C@H](NC(=O)[C@@H]1CSCc2ccccc2CSC[C@H](NC(=O)[C@@H](N)CCCCN)C(=O)N[C@@H](CC(N)=O)C(=O)N[C@@H]([C@@H](C)O)C(=O)N[C@@H](C)C(=O)N[C@@H]([C@@H](C)O)C(=O)N1)C(N)=O (H-KCNTATCA-NH2; linker 2-7 via oXylylene) | inactive
C[C@H](NC(=O)[C@@H]1CSCc2ccc(cc2)CSC[C@H](NC(=O)[C@@H](N)CCCCN)C(=O)N[C@@H](CC(N)=O)C(=O)N[C@@H]([C@@H](C)O)C(=O)N[C@@H](C)C(=O)N[C@@H]([C@@H](C)O)C(=O)N1)C(N)=O (H-KCNTATCA-NH2; linker 2-7 via pXylylene) | Active
C[C@H](NC(=O)[C@@H]1CSCCC(=O)NCCCC[C@H](NC(=O)[C@@H](N)CCCCN)C(=O)N[C@@H](CC(N)=O)C(=O)N[C@@H]([C@@H](C)O)C(=O)N[C@@H](C)C(=O)N[C@@H]([C@@H](C)O)C(=O)N1)C(N)=O (H-KKNTATCA-NH2; linker 2-7 via X2) | inactive
C[C@H](NC(=O)[C@@H]1Cn2cc(nn2)C[C@H](NC(=O)[C@@H](N)CCCCN)C(=O)N[C@@H](CC(N)=O)C(=O)N[C@@H]([C@@H](C)O)C(=O)N[C@@H](C)C(=O)N[C@@H]([C@@H](C)O)C(=O)N1)C(N)=O (H-K[Pra]NTAT[Dap(N3)]A-NH2; triazole 2-7) | inactive

Reference: ChEMBL document CHEMBL2010638, “Synthesis and evaluation of disulfide bond mimetics of amylin-(1-8) as agents to treat osteoporosis” (Bioorg Med Chem, 2012)
